TGI data for 14 compounds are collected here from PubChem BioAssay (NCI).

What all share (assay): DTP human tumour cell line panel, 48 h
The subject of assay [1] is HCT-116 colon.
The test system of assay [2] is MDA-MB-231 breast.
In assay [3] the test system is MDA-MB-435.
For assay [4], the system named is MDA-N.
For assay [5], the system named is MOLT-4 leukemia.
The test system of assay [6] is NCI-H226 lung.
Assay [7] has as its system NCI-H23 lung.
Assay [8] concerns NCI-H460 lung.
Assay [9] has as its system NCI/ADR-RES ovarian.
Assay [10] relates to OVCAR-8 ovarian.
Assay [11] has as its system SF-268 CNS.
Assay [12] relates to SK-MEL-5 melanoma.
The subject of assay [13] is SR leukemia.
The subject of assay [14] is SW-620 colon.
The subject of assay [15] is TK-10 renal.
For assay [16], the system named is CAKI-1 renal.
The test system of assay [17] is NCI-H522 lung.

Structures are written as SMILES.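 Where inhibition never reached the appropriate level, the endpoint shown equals the highest concentration tested. Otherwise, values were interpolated linearly from a five-concentration, 48-hour dose response in 96-well plates. TGI is the concentration that stops growth completely.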

Regarding `Nc1nc2c(c(=O)[nH]1)C(c1ccccc1)CC(=O)N2` (centres undefined), the concentration for total growth inhibition (TGI) in assay [1], in assay [2], in assay [3], in assay [4], in [5] and in assay [6] was over 100 µM in each case. In addition, the total growth inhibition concentration (TGI) in [7], in assay [8], in [9], in assay [10], in assay [11] and in assay [12] was over 100 µM throughout. The TGI in assay [13], in assay [14] and in [15] was over 100 µM each time.
Consider `C=CC1CCC[N+]1(CC(=O)OCC)Cc1ccccc1` (centres undefined), for which the concentration for total growth inhibition (TGI) in [1], in [2], in assay [3], in [4], in assay [5] and in [6] was over 100 µM in each case. In addition, the TGI in assay [7], in assay [8], in [9], in assay [10], in assay [11] and in [12] was over 100 µM throughout. For the same compound, the total growth inhibition concentration (TGI) in [13], in assay [14] and in assay [15] was over 100 µM throughout.
For the compound `Cc1c(CCN2CCOCC2)c(N2CCOCC2)n2c(nc3ccccc32)c1C#N`, the concentration for total growth inhibition (TGI) in assay [16], in assay [1], in [2], in assay [3], in assay [4] and in assay [5] was over 10 µM in each case. Also, the TGI in assay [6], in assay [7], in assay [8], in assay [9], in [10] and in assay [11] was over 10 µM each time. Moreover, the concentration for total growth inhibition (TGI) in [12], in [13], in assay [14] and in assay [15] was over 10 µM each time.
For the compound `N#CC1C(=O)SC2c3ccccc3C(=O)c3ccccc3C12` (centres undefined), the total growth inhibition concentration (TGI) in [16], in assay [1], in [2], in assay [3], in [4] and in assay [5] was over 10 µM throughout. Moreover, the total growth inhibition concentration (TGI) in assay [6], in [7], in assay [8], in assay [9], in assay [10] and in assay [11] was over 10 µM in each case. The concentration for total growth inhibition (TGI) in [12], in assay [13], in [14] and in assay [15] was over 10 µM throughout.
On to `Cc1cccc2c1C(=O)[C@](C)([C@]1(C)Nc3cccc(C)c3C1=O)N2`, for which the TGI in assay [16] was 69.2 µM; in assay [1], over 100 µM; in assay [2] it was over 100 µM; in assay [3], 35.7 µM; in [4], 63 µM; in assay [5], 72.6 µM. Further, the total growth inhibition concentration (TGI) in [6] is over 100 µM; in assay [7], 77.4 µM; in assay [8], over 100 µM; in [17], 80.9 µM; in assay [9] it was over 100 µM; in assay [10] it was 72.8 µM. For the same compound, the total growth inhibition concentration (TGI) in assay [11] is 55.8 µM; in assay [12], over 100 µM; in assay [13], 93.5 µM; in [14] it was over 100 µM.
As to `O=C(O)C1CCCCC1C(=O)Nn1cnnc1` (centres undefined), the total growth inhibition concentration (TGI) in assay [1], in assay [2], in assay [3], in assay [4], in assay [5] and in [7] was over 100 µM each time. The TGI in [17], in assay [9], in assay [10], in [11], in assay [12] and in [13] was over 100 µM each time. The TGI in assay [14] and in assay [15] was over 100 µM in each case.
Take `COc1cc(C2SCC(=O)N2c2ccc(-n3c(-c4ccccc4)nc4ccccc4c3=O)cc2)cc(OC)c1OC` (centres undefined): the TGI in assay [16], in [1], in [2], in [3], in assay [4] and in assay [5] was over 100 µM in each case. For the same compound, the TGI in assay [7], in assay [8], in assay [17], in assay [9], in assay [10] and in [11] was over 100 µM each time. Further, the total growth inhibition concentration (TGI) in assay [12], in assay [13], in assay [14] and in assay [15] was over 100 µM in each case.
Regarding `Cc1ccc(N2C(=O)C=C(C3=C(O)C(=O)N(c4ccc(C)cc4)C3=O)C2=O)cc1`, the concentration for total growth inhibition (TGI) in assay [1], in assay [2], in assay [3], in assay [4], in assay [5] and in assay [6] was over 100 µM each time. Also, the concentration for total growth inhibition (TGI) in assay [7], in [8], in [9], in [10], in assay [11] and in [12] was over 100 µM in each case. Also, the concentration for total growth inhibition (TGI) in assay [13], in [14] and in assay [15] was over 100 µM each time.
Regarding `O=C(CC(C(=O)c1cccs1)c1cccs1)c1ccsc1` (centres undefined), the TGI in assay [16] was over 100 µM; in assay [1], over 100 µM; in [2], over 100 µM; in [3], 43.1 µM; in assay [4], 46.4 µM; in assay [5], over 100 µM. Moreover, the TGI in assay [6], in [7], in assay [8], in [9], in assay [10] and in assay [11] was over 100 µM in each case. Also, the concentration for total growth inhibition (TGI) in [12], in assay [13], in [14] and in assay [15] was over 100 µM in each case.
Consider `COc1ccc(S(=O)(=O)NC(CCC(=O)NN)C(=O)NN)cc1` (centres undefined), for which the TGI in assay [16], in [1], in assay [2], in assay [3], in assay [4] and in [5] was over 100 µM throughout. Besides, the TGI in [7], in [8], in [17], in assay [9], in assay [10] and in [12] was over 100 µM in each case. For the same compound, the TGI in assay [13], in assay [14] and in [15] was over 100 µM each time.
In the case of `CCN(CC)CCC(=O)c1ccc(C)cc1`, the TGI in assay [1] is 36.8 µM; in assay [2] it was 29 µM; in assay [3] it was 33.6 µM; in assay [4], 51.6 µM; in assay [5] it was 52.2 µM; in assay [6], 63.6 µM. In addition, the total growth inhibition concentration (TGI) in assay [7] was 48.1 µM; in [8], over 100 µM; in assay [17] it was 32.7 µM; in [9] it was 65.7 µM; in assay [10] it was over 100 µM; in assay [11], over 100 µM. In addition, the TGI in assay [12] turned out to be 25.8 µM; in assay [13], 82.6 µM; in assay [14], 36.9 µM.
With `O=C1/C(=C/c2ccc(OC(=O)c3ccccc3)cc2)CCC/C1=C\c1ccc(OC(=O)c2ccccc2)cc1`, the total growth inhibition concentration (TGI) in assay [16], in assay [1], in assay [2], in [3], in assay [4] and in assay [5] was over 100 µM throughout. Besides, the concentration for total growth inhibition (TGI) in assay [7], in assay [8], in [17], in assay [9], in [10] and in assay [11] was over 100 µM throughout. Also, the total growth inhibition concentration (TGI) in [12], in assay [13], in assay [14] and in assay [15] was over 100 µM each time.
Regarding `CN(C)CCCNc1ccc2c(=O)n(CCN(C)C)c(=O)n3c4ccccc4c(=O)c1c23`, the TGI in assay [16] is 0.944 µM; in assay [2], 0.496 µM; in assay [3], 0.885 µM; in [4], 0.312 µM; in assay [6], 2.53 µM; in assay [7], 1.19 µM. Besides, the concentration for total growth inhibition (TGI) in assay [8] came out at 1.06 µM; in assay [17], 0.385 µM; in assay [9], 4.02 µM; in [10], 3.59 µM; in assay [11] it was 11.8 µM; in assay [12], 2.19 µM. The concentration for total growth inhibition (TGI) in [13] was determined as 2.96 µM; in assay [15], 2.28 µM.
In the case of `CCCCCCCCCCCCN1[C@H]2CCC[C@H]2C(O)[C@@H]2CCC[C@@H]21` (some centres undefined), the TGI in assay [16], in assay [1], in assay [2], in [3], in [4] and in assay [5] was over 100 µM each time. The TGI in [6], in assay [7], in [8], in assay [9], in [10] and in [11] was over 100 µM throughout. Besides, the total growth inhibition concentration (TGI) in assay [12], in assay [13] and in [14] was over 100 µM throughout.
